In patent US20260042764A1, “COMPOSITIONS AND METHODS FOR INHIBITION OF KRAS” (TheRas, Inc., priority 2022, published 2026):

Columns and labels:
[1] = target: T1, Avi-KRAS G12D (1-169) GppNHp/RAF1 RBD-3xFLAG (52-151) (Homo sapiens, UniProt P01116, G12D); assay: Raf1-KRAS G12D-GppNHP disruption HTRF assay (Biological Example 1); format: binding
T1 construct: Avi-KRAS G12D (1-169)
Method in brief: (§1)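 Read-out is HTRF signal of the KRAS–RAF1 RBD complex, reported as percentage of activity relative to DMSO (100%). Protein mix and detection reagents each incubated 1 h at room temperature with 700 rpm shaking. Buffer: 50 mM Tris pH 7.5, 100 mM NaCl, 5 mM MgCl2, 0.1% BSA, 0.01% Tween, 10% DMSO.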

GP2d cells (KRAS G12D) = assay: Cell-based pERK HTRF assay in GP2d cell (Biological Example 2); conditions: GP2d, GP2d (KRAS G12D) cells, pERK HTRF
Method in brief: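 Phospho-ERK in lysed cells was detected by HTRF using Eu cryptate and d2 antibodies, read between 4 and 24 h at room temperature. Prior to lysis, KRAS G12D GP2d cells, seeded the day before in DMEM with 10% FBS, were exposed to compounds for 60 min. Compounds were tested as 9-point half-log curves from 1 μM or 100 nM top, with 0.25% DMSO.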

[2] = target: T2, Avi-KRAS WT (1-169) GppNHp/RAF1 RBD-3xFLAG (52-151) (Homo sapiens, UniProt P01116); assay: Raf1-KRAS WT-GppNHP disruption HTRF assay (Biological Example 1); format: binding
T2 construct: Avi-KRAS WT (1-169)
Method in brief: as §1

[3] = target: T3, Avi-KRAS G12V (1-169) GppNHp/RAF1 RBD-3xFLAG (52-151) (Homo sapiens, UniProt P01116, G12V); assay: Raf1-KRAS G12V-GppNHP disruption HTRF assay (Biological Example 1); format: binding
T3 construct: Avi-KRAS G12V (1-169)
Method in brief: as §1

[4] = target: T4, Avi-KRAS G12R (1-169) GppNHp/RAF1 RBD-3xFLAG (52-151) (Homo sapiens, UniProt P01116, G12R); assay: Raf1-KRAS G12R-GppNHP disruption HTRF assay (Biological Example 1); format: binding
T4 construct: Avi-KRAS G12R (1-169)
Method in brief: as §1

SW620 cells (KRAS G12V) = assay: Cell-based pERK HTRF assay in SW620 cell (Biological Example 4); conditions: Homo sapiens, SW-620, SW620 (KRAS G12V) cells, pERK HTRF
Method in brief: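 SW620 (KRAS G12V) cells seeded at 3×10^4/well in RPMI, 10% FBS, then treated next day for 4 h with a 9-point half-log series from 1 μM top (0.25% DMSO). Lysates analyzed for pERK by HTRF (Eu cryptate/d2 antibodies, 4–24 h at room temperature), excitation 320 nm, emission 615 nm.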

[5] = KRAS G12D, GppNHp-loaded, class symbols
[6] = KRAS WT, GppNHp-loaded, class symbols
[7] = KRAS G12V, GppNHp-loaded, class symbols
[8] = KRAS G12R, GppNHp-loaded, class symbols
[9] = KRAS G12D, GppNHp-loaded, Table 11
[10] = KRAS WT, GppNHp-loaded, Table 11
[11] = KRAS G12V, GppNHp-loaded, Table 11
[12] = KRAS G12R, GppNHp-loaded, Table 11

T3 sequence (P01116 1-169 isoform P01116-2 G12V): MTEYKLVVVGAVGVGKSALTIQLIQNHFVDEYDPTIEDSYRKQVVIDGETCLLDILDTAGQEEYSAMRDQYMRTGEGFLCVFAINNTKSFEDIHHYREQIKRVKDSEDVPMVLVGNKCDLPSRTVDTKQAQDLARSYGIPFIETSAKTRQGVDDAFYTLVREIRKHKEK
T2 sequence (P01116 1-169 isoform P01116-2): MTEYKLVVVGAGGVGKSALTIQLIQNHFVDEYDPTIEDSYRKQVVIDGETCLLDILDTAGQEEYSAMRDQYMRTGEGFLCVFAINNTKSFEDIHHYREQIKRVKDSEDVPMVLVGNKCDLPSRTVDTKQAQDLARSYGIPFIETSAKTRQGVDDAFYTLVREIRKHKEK
T4 sequence (P01116 1-169 isoform P01116-2 G12R): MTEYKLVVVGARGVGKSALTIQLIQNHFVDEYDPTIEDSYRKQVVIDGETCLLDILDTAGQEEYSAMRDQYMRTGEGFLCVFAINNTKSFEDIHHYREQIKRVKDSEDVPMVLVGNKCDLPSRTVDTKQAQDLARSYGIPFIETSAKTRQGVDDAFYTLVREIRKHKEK
T1 sequence (P01116 1-169 isoform P01116-2 G12D): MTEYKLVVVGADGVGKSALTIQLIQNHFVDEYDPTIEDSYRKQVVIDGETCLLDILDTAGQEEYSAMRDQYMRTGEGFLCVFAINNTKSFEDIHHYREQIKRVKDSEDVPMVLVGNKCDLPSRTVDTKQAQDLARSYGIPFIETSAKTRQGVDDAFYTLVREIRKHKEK

IC50 [1, 5] [nM]	IC50 (GP2d cells (KRAS G12D); class symbols) [nM]	IC50 [2, 6] [nM]	IC50 [3, 7] [nM]	IC50 [4, 8] [nM]	IC50 (SW620 cells (KRAS G12V); class symbols) [nM]	IC50 ([1]; KRAS G12D-GppNHp/RAF1 RBD HTRF) [nM]	IC50 (GP2d cells (KRAS G12D)) [nM]	IC50 ([2]; KRAS WT-GppNHp/RAF1 RBD HTRF) [nM]	IC50 ([3]; KRAS G12V-GppNHp/RAF1 RBD HTRF) [nM]	IC50 ([4]; KRAS G12R-GppNHp/RAF1 RBD HTRF) [nM]	IC50 (SW620 cells (KRAS G12V)) [nM]	IC50 [1, 9] [nM]	IC50 [2, 10] [nM]	IC50 [3, 11] [nM]	IC50 [4, 12] [nM]	Compound
< 100	< 100	< 100	< 100	< 100	< 100	–	–	–	–	–	–	–	–	–	–	CCN(c1nc(OC[C@@]23CCCN2C[C@H](F)C3)nc2c(F)c(-c3ccc(F)c4sc(N)c(C#N)c34)c(C(F)(F)F)cc12)[C@H]1CCN(C(=O)c2cocn2)C1 (atropisomer, axis not shown) [Compound 719]
< 100	< 100	< 100	< 100	< 100	< 100	–	–	–	–	–	–	–	–	–	–	CCN(c1nc(OC[C@@]23CCCN2C[C@H](F)C3)nc2c(F)c(-c3ccc(F)c4sc(N)c(C#N)c34)c(C(F)(F)F)cc12)[C@H]1CCN(C(=O)c2cn(C)nn2)C1 (atropisomer, axis not shown) [Compound 725]
–	–	–	–	–	–	100 to 1000	< 100	100 to 1000	100 to 1000	100 to 1000	< 100	–	–	–	–	CCN(c1nc(OC[C@@]23CCCN2C[C@H](F)C3)nc2c(F)c(-c3ccc(F)c4sc(N)c(C#N)c34)c(C(F)(F)F)cc12)[C@H]1CCS(=O)(=O)C1 [Compound 350]
< 100	< 100	100 to 1000	100 to 1000	100 to 1000	< 100	–	–	–	–	–	–	–	–	–	–	CCN(c1nc(OC[C@@]23CCCN2C[C@H](F)C3)nc2c(F)c(-c3ccc(F)c4sc(N)c(C#N)c34)c(C(F)(F)F)cc12)[C@H]1CCN(C(=O)c2cnnn2C)C1 (atropisomer, axis not shown) [Compound 733]
< 100	< 100	< 100	< 100	< 100	< 100	–	–	–	–	–	–	–	–	–	–	CCN(c1nc(OC[C@@]23CCCN2C[C@H](F)C3)nc2c(F)c(-c3ccc(F)c4sc(N)c(C#N)c34)c(C(F)(F)F)cc12)[C@H]1CCN(C(=O)[C@@H]2C[C@@H]2F)C1 (atropisomer, axis not shown) [Compound 691]
< 100	< 100	< 100	< 100	< 100	< 100	–	–	–	–	–	–	–	–	–	–	CCN(c1nc(OC[C@@]23CCCN2C[C@H](F)C3)nc2c(F)c(-c3ccc(F)c4sc(N)c(C#N)c34)c(C(F)(F)F)cc12)[C@@H]1CCN(C(=O)[C@H]2CCO2)[C@@H]1C (atropisomer, axis not shown) [Compound 788]
–	–	–	–	–	–	–	< 100	–	–	–	< 100	100 to 1000	100 to 1000	100 to 1000	100 to 1000	CC(=O)N1C[C@@H](N(C)c2nc(OC[C@@]34CCCN3C[C@H](F)C4)nc3c(F)c(-c4ccc(F)c5sc(N)c(C#N)c45)c(C(F)(F)F)cc23)C[C@H]1C [Compound 277]
< 100	< 100	< 100	< 100	< 100	< 100	–	–	–	–	–	–	–	–	–	–	CCN(c1nc(OC[C@@]23CCCN2C[C@H](F)C3)nc2c(F)c(-c3ccc(F)c4sc(N)c(C#N)c34)c(C(F)(F)F)cc12)[C@H]1CCN(C(=O)C=C(C)C)C1 (atropisomer, axis not shown) [Compound 675]
–	–	–	–	–	–	100 to 1000	< 100	100 to 1000	1000 to 10000	100 to 1000	100 to 1000	–	–	–	–	CC(=O)N1C[C@@H]2OCCN(c3nc(OC[C@@]45CCCN4C[C@H](F)C5)nc4c(F)c(-c5ccc(F)c6sc(N)c(C#N)c56)c(C(F)(F)F)cc34)[C@@H]2C1 [Compound 481]
–	–	–	–	–	–	–	< 100	–	–	–	< 100	100 to 1000	100 to 1000	100 to 1000	100 to 1000	N#Cc1c(N)sc2c(F)ccc(-c3c(C(F)(F)F)cc4c(N5CC[C@@H]5CF)nc(OC[C@@]56CCCN5C[C@H](F)C6)nc4c3F)c12 [Compound 272]
–	–	–	–	–	–	–	< 100	–	–	–	< 100	100 to 1000	100 to 1000	100 to 1000	100 to 1000	CC(=O)N1CCCN(c2nc(OC[C@@]34CCCN3C[C@H](F)C4)nc3c(F)c(-c4ccc(F)c5sc(N)c(C#N)c45)c(C(F)(F)F)cc23)CC1 [Compound 278]
–	–	–	–	–	–	< 100	< 100	< 100	< 100	< 100	< 100	–	–	–	–	CCN(c1nc(OC[C@@]23CCCN2C[C@H](F)C3)nc2c(F)c(-c3ccc(F)c4sc(N)c(C#N)c34)c(C(F)(F)F)cc12)[C@H]1CCN(C(=O)C2(C#N)CC2)C1 [Compound 560]
–	–	–	–	–	–	–	< 100	–	–	–	< 100	100 to 1000	100 to 1000	1000 to 10000	100 to 1000	CN(c1nc(OC[C@@]23CCCN2C[C@H](F)C3)nc2c(F)c(-c3ccc(F)c4sc(N)c(C#N)c34)c(C(F)(F)F)cc12)C1CC(F)(F)C1 [Compound 162]
–	–	–	–	–	–	100 to 1000	< 100	100 to 1000	100 to 1000	100 to 1000	< 100	–	–	–	–	CCN(c1nc(OC[C@@]23CCCN2C[C@H](F)C3)nc2c(F)c(-c3ccc(F)c4sc(N)c(C#N)c34)c(C(F)(F)F)cc12)[C@@H]1CCN(C(=O)OC)[C@@H]1C [Compound 489]
–	–	–	–	–	–	100 to 1000	< 100	100 to 1000	100 to 1000	100 to 1000	< 100	–	–	–	–	C[C@@H]1CC[C@@H](O)CN1c1nc(OC[C@@]23CCCN2C[C@H](F)C3)nc2c(F)c(-c3ccc(F)c4sc(N)c(C#N)c34)c(C(F)(F)F)cc12 [Compound 314]
< 100	< 100	< 100	< 100	< 100	< 100	–	–	–	–	–	–	–	–	–	–	CCN(c1nc(OC[C@@]23CCCN2C[C@H](F)C3)nc2c(F)c(-c3ccc(F)c4sc(N)c(C#N)c34)c(C(F)(F)F)cc12)[C@H]1CCN(C(=O)N2C[C@@H]3C[C@H]2CO3)C1 (atropisomer, axis not shown) [Compound 654]
< 100	< 100	< 100	100 to 1000	< 100	< 100	–	–	–	–	–	–	–	–	–	–	CCN(c1nc(OC[C@@]23CCCN2C[C@H](F)C3)nc2c(F)c(-c3ccc(F)c4sc(N)c(C#N)c34)c(C(F)(F)F)cc12)[C@H]1CCN(C(=O)[C@@H](C)CF)C1 (atropisomer, axis not shown) [Compound 710]
< 100	< 100	100 to 1000	100 to 1000	100 to 1000	< 100	–	–	–	–	–	–	–	–	–	–	CN(c1nc(OC[C@@]23CCCN2C[C@H](F)C3)nc2c(F)c(-c3ccc(F)c4sc(N)c(C#N)c34)c(C(F)(F)F)cc12)[C@H]1CCN(C(=O)[C@@H]2CC2(F)F)C1 (atropisomer, axis not shown) [Compound 785]
–	–	–	–	–	–	100 to 1000	< 100	100 to 1000	100 to 1000	100 to 1000	< 100	–	–	–	–	CCN(c1nc(OC[C@@]23CCCN2C[C@H](F)C3)nc2c(F)c(-c3ccc(F)c4sc(N)c(C#N)c34)c(C(F)(F)F)cc12)[C@H]1C[C@H](C)N(C(=O)C(C)C)C1 [Compound 471]
< 100	< 100	< 100	< 100	< 100	< 100	–	–	–	–	–	–	–	–	–	–	CCN(c1nc(OC[C@@]23CCCN2C[C@H](F)C3)nc2c(F)c(-c3ccc(F)c4sc(N)c(C#N)c34)c(C(F)(F)F)cc12)[C@H]1CCN(C(=O)[C@H]2CCCCO2)C1 (atropisomer, axis not shown) [Compound 770]

Compound	IC50 [1, 5] [nM]	IC50 (GP2d cells (KRAS G12D); class symbols) [nM]	IC50 [2, 6] [nM]	IC50 [3, 7] [nM]	IC50 [4, 8] [nM]	IC50 (SW620 cells (KRAS G12V); class symbols) [nM]	IC50 ([1]; KRAS G12D-GppNHp/RAF1 RBD HTRF) [nM]	IC50 (GP2d cells (KRAS G12D)) [nM]	IC50 ([2]; KRAS WT-GppNHp/RAF1 RBD HTRF) [nM]	IC50 ([3]; KRAS G12V-GppNHp/RAF1 RBD HTRF) [nM]	IC50 ([4]; KRAS G12R-GppNHp/RAF1 RBD HTRF) [nM]	IC50 (SW620 cells (KRAS G12V)) [nM]	IC50 [1, 9] [nM]	IC50 [2, 10] [nM]	IC50 [3, 11] [nM]	IC50 [4, 12] [nM]
CN1CC(F)(F)C[C@H]1COc1nc(N2CC3CC(C2)O3)c2cc(C(F)(F)F)c(-c3ccc(F)c4sc(N)c(C#N)c34)c(F)c2n1 [Compound 498]	–	–	–	–	–	–	> 10000	> 1000	> 10000	> 10000	> 10000	> 1000	–	–	–	–
N#Cc1c(N)sc2c(F)ccc(-c3c(C(F)(F)F)cc4c(N5CC6CC(C5)O6)nc(OC[C@@]56CCCN5C[C@@]5(CC5(F)F)C6)nc4c3F)c12 [Compound 366]	–	–	–	–	–	–	100 to 1000	< 100	100 to 1000	1000 to 10000	1000 to 10000	< 100	–	–	–	–
